Reference: patent publication US20240293563A1, “GLP-1 RECEPTOR LIGAND MOIETY CONJUGATED OLIGONUCLEOTIDES AND USES THEREOF” (priority 2017, published 2024)
Square brackets hold non-standard residues; d marks the D form. Side chains are listed from the residue outwards. Ends that are not written are not given here. 5'‑hexylamino oligonucleotide ISIS 722061 = not defined here; 5'‑hexylamino oligonucleotide ION 913192 = not defined here; Aib = CC(C)(N)C(=O)O; Mpa = O=C(O)CCS

Tests used:
[1] = system: MALAT1; assay: MALAT1 in situ hybridization in beta islet cells after i.v. GLP-1 ASO conjugates with various linkers; format: in vivo, mouse; details: male C57BL/6 mice; intravenous 0.6 μmol/kg/week once a week for three weeks; 72 hours after final injection
[2] = system: MALAT-1; assay: Dose-dependent reduction of MALAT-1 expression in LVX-GLP1R cells; format: cell-based, human
Procedure: HEK cells stably expressing FLAG-tagged GLP1R were generated by infecting HEK 293 cells with FLAG-tagged GLP1R containing lentivirus produced by transfection of 293T cells with pLVX-IRES-Puro (Clontech Laboratories Inc., Mountainview, CA) harboring the FLAG-GLP1R insert. Infected cells were selected with puromycin (2 μg/ml) and then analyzed for receptor expression by western blot and immunofluorescence. Cultured GLP1R cells were plated at a density of 10,000 cells per well and treated with 0.3, 1, 3, 9, 27, 82, 247, 741, 2,222, 6,667, and 20,000 nM modified oligonucleotide for approximately 24 hours. After the treatment period, total RNA was prepared using an RNeasy mini kit (Qiagen, Valencia, CA, USA) and qRT-PCR was performed using the primer probe set RTS2739 (forward sequence: […] (SEQ ID NO: 74), reverse sequence: […] (SEQ ID NO: 75), probe sequence: […] (SEQ ID NO: 76). Briefly, ˜50 ng total RNA in 5 d water was mixed with 0.3 d primer probe sets containing forward and reverse primers (10 μM of each) and fluorescently labeled probe (3 μM), 0.3 W RT enzyme mix (Qiagen), 4.4 d RNase-free water, and 10 d of 2×PCR reaction buffer in a 20 d reaction. Reverse transcription was performed at 48° C. for 10 min, 40 cycles of PCR were conducted at 94° C. for 20 s, and 60° C. for 20 s within each cycle, using StepOne Plus RT-PCR system (Applied Biosystems, Phoenix, AZ, USA). The mRNA levels were normalized to the amount of total RNA present in each reaction as determined by Ribogreen assay (Life Technologies) and normalized to the saline control (100% expression).

[3] = system: FOXO1 mRNA; assay: FOXO1 mRNA in cultured mouse primary islets of Langerhans treated with ASO; format: cell-based; details: for Islet FOXO1 mRNA levels relative to control (RPLP0): percent of untreated cells, 1 μM ASO 3 hrs every 24 hrs
Procedure: Pancreatic islets were isolated by collagenase digestion from pancreas collected from exsanguinated 12 to 15 weeks old female C57BL/6Crl mice. Islets were maintained in tissue culture until use. Islet were dissociated into single cells by shaking in media containing a low extracellular calcium concentration. 10 to 20 intact or dissociated islets were plated on plastic Petri Dishes and treated with 10 μM of antisense oligonucleotides for approximately 24 hrs. After the treatment period cells were harvested, RNA isolated, adjusted to total RNA content, as measured by RIBOGREEN®. MALAT1 or FOXO1 mRNA levels measured by quantitative real-time PCR. […] All data was normalized to the mRNA level of the house keeping gene (RPLP0) in the same sample, measured using a primer probe set with forward sequence […] NO: 71), reverse sequence […] NO: 72) and probe sequence […] NO: 73). Pancreatic islets were isolated by collagenase digestion from pancreas collected from euthanized 12 to 15 weeks old female B6.Cg-Lepob/J mice and maintained in tissue culture until use. 150 intact islets were placed in plastic Petri Dishes and treated with 1 μM of antisense oligonucleotides for 3 hrs every 24 hrs and harvested after approximately 24 hrs, 48 hrs or 96 hrs total treatment time respectively. After the treatment period, islets were harvested, and half of the islets were used to measure FOXO1 mRNA levels as described herein (Example 9). Half of the islets were homogenized in M-PER protein extraction reagent (Thermo Scientific) containing a protease inhibitor cocktail (Complete Mini and phosphoSTOP, Roche Diagnostics). The protein content of lysates were quantitated using BCA Assay Reagent (Pierce). […] For the anti-FoxO1 antibody, the secondary antibody was HRP-conjugated polyclonal goat anti-Rabbit P0448 (DAKO) and for the anti-α-tubulin antibody, the secondary antibody was HRP-conjugated polyclonal goat anti-mouse P0447 (DAKO). Enhanced chemiluminescence reagents (Pierce) were used for detection.

[4] = system: FoxO1 protein; assay: FoxO1 protein (Western Blot) in cultured mouse primary islets of Langerhans treated with ASO; format: cell-based; details: Western Blot normalized to α-tubulin; islets treated for 96 hours; 1 μM
Procedure: Pancreatic islets were isolated by collagenase digestion from pancreas collected from euthanized 12 to 15 weeks old female B6.Cg-Lepob/J mice and maintained in tissue culture until use. 150 intact islets were placed in plastic Petri Dishes and treated with 1 μM of antisense oligonucleotides for 3 hrs every 24 hrs and harvested after approximately 24 hrs, 48 hrs or 96 hrs total treatment time respectively. After the treatment period, islets were harvested, and half of the islets were used to measure FOXO1 mRNA levels as described herein (Example 9). Half of the islets were homogenized in M-PER protein extraction reagent (Thermo Scientific) containing a protease inhibitor cocktail (Complete Mini and phosphoSTOP, Roche Diagnostics). The protein content of lysates were quantitated using BCA Assay Reagent (Pierce). […] For the anti-FoxO1 antibody, the secondary antibody was HRP-conjugated polyclonal goat anti-Rabbit P0448 (DAKO) and for the anti-α-tubulin antibody, the secondary antibody was HRP-conjugated polyclonal goat anti-mouse P0447 (DAKO). Enhanced chemiluminescence reagents (Pierce) were used for detection. […] Protein levels were quantified by measuring the intensity of the bands on the gel normalized to the intensity of α-tubulin, and expressed as percent of vehicle treated islets. FoxO1 protein levels were set to 100% in vehicle treated islets. […]

[5] = system: FOXO1 mRNA; assay: FOXO1 mRNA in isolated islets and liver after 6 weeks repeated administration to ob/ob mice; format: in vivo, mouse; details: ob/ob mice
Procedure: Pancreatic islets were isolated by collagenase digestion from pancreas collected from exsanguinated 12 to 15 weeks old female C57BL/6Crl mice. Islets were maintained in tissue culture until use. Islet were dissociated into single cells by shaking in media containing a low extracellular calcium concentration. 10 to 20 intact or dissociated islets were plated on plastic Petri Dishes and treated with 10 μM of antisense oligonucleotides for approximately 24 hrs. After the treatment period cells were harvested, RNA isolated, adjusted to total RNA content, as measured by RIBOGREEN®. MALAT1 or FOXO1 mRNA levels measured by quantitative real-time PCR. […] All data was normalized to the mRNA level of the house keeping gene (RPLP0) in the same sample, measured using a primer probe set with forward sequence […] NO: 71), reverse sequence […] NO: 72) and probe sequence […] NO: 73). Male ob/ob mice (B6.V-Lepob/OlaHsd, Harlan) were assigned to five treatment groups receiving either vehicle, 0.1 μmol/kg ISIS 776102, 0.1 μmol/kg ION 913195, 0.03 ION 913193 or 1 μmol/kg ION 913193. All animals were treated once weekly for 6 weeks. Approximately 120 hrs after last dose all animals were sacrificed, liver samples collected and pancreatic islets isolated, as described herein (Example 9), for mRNA analysis. FOXO1 mRNA levels were quantified as described herein (Example 9) and mRNA levels expressed relative to housekeeping gene in each sample (RPLP0).

[6] = system: FoxO1 protein; assay: FoxO1 protein levels in islets isolated from ob/ob mice treated for 6 weeks; format: in vivo, mouse
Procedure: Pancreatic islets were isolated by collagenase digestion from pancreas collected from euthanized 12 to 15 weeks old female B6.Cg-Lepob/J mice and maintained in tissue culture until use. 150 intact islets were placed in plastic Petri Dishes and treated with 1 μM of antisense oligonucleotides for 3 hrs every 24 hrs and harvested after approximately 24 hrs, 48 hrs or 96 hrs total treatment time respectively. After the treatment period, islets were harvested, and half of the islets were used to measure FOXO1 mRNA levels as described herein (Example 9). Half of the islets were homogenized in M-PER protein extraction reagent (Thermo Scientific) containing a protease inhibitor cocktail (Complete Mini and phosphoSTOP, Roche Diagnostics). The protein content of lysates were quantitated using BCA Assay Reagent (Pierce). […] For the anti-FoxO1 antibody, the secondary antibody was HRP-conjugated polyclonal goat anti-Rabbit P0448 (DAKO) and for the anti-α-tubulin antibody, the secondary antibody was HRP-conjugated polyclonal goat anti-mouse P0447 (DAKO). Enhanced chemiluminescence reagents (Pierce) were used for detection. Male ob/ob mice (B6.V-Lepob/OlaHsd, Harlan) were assigned to five treatment groups receiving either vehicle, 0.1 μmol/kg ISIS 776102, 0.1 μmol/kg ION 913195, 0.03 ION 913193 or 1 μmol/kg ION 913193. All animals were treated once weekly for 6 weeks. Approximately 120 hrs after last dose all animals were sacrificed, liver samples collected and pancreatic islets isolated, as described herein (Example 9), for mRNA analysis. FOXO1 mRNA levels were quantified as described herein (Example 9) and mRNA levels expressed relative to housekeeping gene in each sample (RPLP0). Male ob/ob mice were assigned to five treatment groups as described herein (Example 17) Approximately 120 hrs after last dose all animals were sacrificed and pancreatic islets isolated for FoxO1 protein analysis as described herein (Example 10). Random samples were selected from each treatment group and loaded on each gel such that at least one sample from each treatment group was analysed on the same gels. FoxO1 protein levels were measured by quantifying the intensity and normalized against the α-tublin levels in the same sample. All samples within individual gels were expressed as percentage of the levels measured in islets of animals receiving ION 913195.

[7] = system: MALAT1; assay: Effect of peptide composition and attachment point on peptide-conjugated ASO activity in LVX-GLP1R cells; format: cell-based, human; details: 7 doses in a 4-fold dilution series, MALAT1 RNA
[8] = 0.03 μmol/kg once weekly for 6 weeks
[9] = 0.1 μmol/kg once weekly for 6 weeks

ION 962963 (H[Aib]EGTFTSDVSSYLEEQAAKEFIAWLVKGGPSSGAPPPSC([Mpa-5'‑hexylamino oligonucleotide ISIS 722061])-NH2; reading uncertain; also: Cys40 joined to the linker by a disulfide)
MALAT1 expression in beta islet cells compared to saline control (in situ hybridization) [1]: reduced
dose-dependent inhibition of MALAT-1 ([2]; GLP1R HEK cells, GLP-1 complexed ASOs with or without a TCA linker versus parent): increased dose-dependent inhibition
IC50 ([2]; approximately 24 hours, read-out: IC50 (MALAT-1 expression in GLP1R HEK cells)): 0.35 µM

ION 913193 (H[Aib]EGTFTSDVSSYLEEQAAKEFIAWLVKGGPSSGAPPPSC([Mpa-5'‑hexylamino oligonucleotide ION 913192])-NH2; reading uncertain; also: Cys40 joined to the linker by a disulfide)
reduction in FOXO1 mRNA ([3]; mouse islets, 1 μM ASO, summary of Table 2): more than 70%
Islet FOXO1 mRNA levels relative to control (RPLP0) ([3]; 24 hours): 31%
Islet FOXO1 mRNA levels relative to control (RPLP0) ([3]; 48 hours): 30%
Islet FOXO1 mRNA levels relative to control (RPLP0) ([3]; 96 hours): 25%
FoxO1 protein levels, percent of vehicle treated islets [4]: 5%
average FOXO1 mRNA reduction in isolated islets of Langerhans [5, 8]: 42%
average FOXO1 mRNA reduction in isolated islets of Langerhans [5, 9]: 72%
Foxo1 protein levels reduced relative to ION 913195 [6, 8]: 57%
Foxo1 protein levels reduced relative to animals treated with 0.1 μmol/kg ISIS 776102 [6, 8]: 64%
Foxo1 protein levels reduced relative to ION 913195 [6, 9]: 81%
Foxo1 protein levels reduced relative to animals treated with 0.1 μmol/kg ISIS 776102 [6, 9]: 36%

ION 1083569 (HSEGTFTSDVSSYLEGQAAKEFIAWLVKGRX; C-terminal Z = 4-azidonorleucine, joined by a click reaction to the 5'-BCN MALAT1 oligonucleotide ION 791173; C-terminal amide)
IC50 [7]: 2.02 µM
